Measurements reported in patent US20210070748A1, “INHIBITORS OF BRUTONS TYROSINE KINASE” (Pharmacyclics LLC, priority 2015, published 2021).
Where two headings read alike, the source gives them in different places.

Legend:
Type in all cases: biochemical
ITK = target: T1, ITK (Homo sapiens, UniProt Q08881); assay: Inhibition of a panel of kinases, in vitro HotSpot kinase assay: ITK; conditions: for IC50: 1 μM ATP; for ITK* IC50 relative to Btk IC50 value: fold relative to Btk IC50 value
T1 sequence (Q08881 1-620): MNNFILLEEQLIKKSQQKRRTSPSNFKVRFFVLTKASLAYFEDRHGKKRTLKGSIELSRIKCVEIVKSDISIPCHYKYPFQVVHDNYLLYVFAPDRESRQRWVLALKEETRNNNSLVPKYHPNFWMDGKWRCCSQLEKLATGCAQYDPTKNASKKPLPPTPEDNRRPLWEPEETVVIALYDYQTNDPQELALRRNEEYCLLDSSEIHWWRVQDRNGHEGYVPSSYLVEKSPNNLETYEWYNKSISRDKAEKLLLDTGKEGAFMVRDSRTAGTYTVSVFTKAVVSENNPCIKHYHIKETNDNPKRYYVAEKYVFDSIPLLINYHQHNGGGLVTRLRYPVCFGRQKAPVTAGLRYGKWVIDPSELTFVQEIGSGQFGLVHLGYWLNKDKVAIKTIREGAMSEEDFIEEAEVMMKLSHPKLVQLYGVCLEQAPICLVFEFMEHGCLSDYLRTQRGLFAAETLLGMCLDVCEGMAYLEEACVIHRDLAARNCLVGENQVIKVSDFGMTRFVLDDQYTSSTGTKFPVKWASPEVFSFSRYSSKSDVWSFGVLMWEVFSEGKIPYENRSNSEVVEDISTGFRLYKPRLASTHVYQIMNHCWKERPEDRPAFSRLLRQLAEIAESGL
Protocol: (§1) The degree of inhibition of a panel of kinases is determined using the in vitro HotSpot kinase assay (purified enzymes, ^33P-ATP, an appropriate substrate and 1 μM ATP).

BTK-WT = target: T2, BTK-WT (Homo sapiens, UniProt Q06187); assay: Btk in vitro inhibitory activity (one of Method A TR-FRET, Method B electrophoretic mobility shift, Method C radiometric filter binding)
T2 construct: purified from insect cells as a full-length construct containing an N-terminal 6X-His tag; His6 (N); made in house; host or cells: insect cells (baculovirus Sf21 in Method B)
T2 sequence (Q06187 whole entry): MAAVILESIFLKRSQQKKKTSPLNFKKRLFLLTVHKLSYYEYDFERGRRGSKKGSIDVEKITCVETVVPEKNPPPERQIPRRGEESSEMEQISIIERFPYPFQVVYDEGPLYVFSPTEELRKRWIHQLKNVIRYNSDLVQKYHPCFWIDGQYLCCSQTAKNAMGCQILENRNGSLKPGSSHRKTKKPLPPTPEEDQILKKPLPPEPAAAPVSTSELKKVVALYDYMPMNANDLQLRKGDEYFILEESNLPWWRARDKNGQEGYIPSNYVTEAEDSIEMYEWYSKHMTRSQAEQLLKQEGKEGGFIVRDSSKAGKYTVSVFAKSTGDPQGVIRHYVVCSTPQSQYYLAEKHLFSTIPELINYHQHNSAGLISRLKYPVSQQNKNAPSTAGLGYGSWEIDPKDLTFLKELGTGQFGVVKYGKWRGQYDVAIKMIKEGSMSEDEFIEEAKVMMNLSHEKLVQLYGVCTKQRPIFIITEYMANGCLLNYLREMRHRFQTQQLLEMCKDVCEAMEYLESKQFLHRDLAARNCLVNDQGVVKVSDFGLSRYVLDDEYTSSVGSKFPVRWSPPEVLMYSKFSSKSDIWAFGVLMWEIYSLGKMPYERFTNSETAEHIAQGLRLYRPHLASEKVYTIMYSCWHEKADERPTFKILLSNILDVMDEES

SRC = SRC (Homo sapiens, UniProt P12931); assay: Inhibition of a panel of kinases, in vitro HotSpot kinase assay: SRC; conditions: for IC50: 1 μM ATP; for SRC* IC50 relative to Btk IC50 value: fold relative to Btk IC50 value
Chain of SRC (P12931 whole entry): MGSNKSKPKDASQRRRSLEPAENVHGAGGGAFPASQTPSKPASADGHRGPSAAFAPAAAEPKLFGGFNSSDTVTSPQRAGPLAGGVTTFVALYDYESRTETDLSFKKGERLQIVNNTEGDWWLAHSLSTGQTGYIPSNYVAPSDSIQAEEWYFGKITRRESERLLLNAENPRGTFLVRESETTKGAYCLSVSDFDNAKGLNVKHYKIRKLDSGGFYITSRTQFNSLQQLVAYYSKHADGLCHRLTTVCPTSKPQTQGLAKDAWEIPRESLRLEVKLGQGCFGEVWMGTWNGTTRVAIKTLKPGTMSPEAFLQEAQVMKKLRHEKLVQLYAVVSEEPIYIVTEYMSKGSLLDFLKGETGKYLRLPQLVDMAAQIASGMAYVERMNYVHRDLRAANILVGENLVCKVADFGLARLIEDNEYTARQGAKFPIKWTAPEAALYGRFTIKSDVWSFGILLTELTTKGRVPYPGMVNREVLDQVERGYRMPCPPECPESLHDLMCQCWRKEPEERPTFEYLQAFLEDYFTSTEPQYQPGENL
Protocol: as §1

EGFR = EGFR (Homo sapiens, UniProt P00533); assay: Inhibition of a panel of kinases, in vitro HotSpot kinase assay: EGFR; conditions: for IC50: 1 μM ATP; for EGFR* IC50 relative to Btk IC50 value: fold relative to Btk IC50 value
Chain of EGFR (P00533 25-1210): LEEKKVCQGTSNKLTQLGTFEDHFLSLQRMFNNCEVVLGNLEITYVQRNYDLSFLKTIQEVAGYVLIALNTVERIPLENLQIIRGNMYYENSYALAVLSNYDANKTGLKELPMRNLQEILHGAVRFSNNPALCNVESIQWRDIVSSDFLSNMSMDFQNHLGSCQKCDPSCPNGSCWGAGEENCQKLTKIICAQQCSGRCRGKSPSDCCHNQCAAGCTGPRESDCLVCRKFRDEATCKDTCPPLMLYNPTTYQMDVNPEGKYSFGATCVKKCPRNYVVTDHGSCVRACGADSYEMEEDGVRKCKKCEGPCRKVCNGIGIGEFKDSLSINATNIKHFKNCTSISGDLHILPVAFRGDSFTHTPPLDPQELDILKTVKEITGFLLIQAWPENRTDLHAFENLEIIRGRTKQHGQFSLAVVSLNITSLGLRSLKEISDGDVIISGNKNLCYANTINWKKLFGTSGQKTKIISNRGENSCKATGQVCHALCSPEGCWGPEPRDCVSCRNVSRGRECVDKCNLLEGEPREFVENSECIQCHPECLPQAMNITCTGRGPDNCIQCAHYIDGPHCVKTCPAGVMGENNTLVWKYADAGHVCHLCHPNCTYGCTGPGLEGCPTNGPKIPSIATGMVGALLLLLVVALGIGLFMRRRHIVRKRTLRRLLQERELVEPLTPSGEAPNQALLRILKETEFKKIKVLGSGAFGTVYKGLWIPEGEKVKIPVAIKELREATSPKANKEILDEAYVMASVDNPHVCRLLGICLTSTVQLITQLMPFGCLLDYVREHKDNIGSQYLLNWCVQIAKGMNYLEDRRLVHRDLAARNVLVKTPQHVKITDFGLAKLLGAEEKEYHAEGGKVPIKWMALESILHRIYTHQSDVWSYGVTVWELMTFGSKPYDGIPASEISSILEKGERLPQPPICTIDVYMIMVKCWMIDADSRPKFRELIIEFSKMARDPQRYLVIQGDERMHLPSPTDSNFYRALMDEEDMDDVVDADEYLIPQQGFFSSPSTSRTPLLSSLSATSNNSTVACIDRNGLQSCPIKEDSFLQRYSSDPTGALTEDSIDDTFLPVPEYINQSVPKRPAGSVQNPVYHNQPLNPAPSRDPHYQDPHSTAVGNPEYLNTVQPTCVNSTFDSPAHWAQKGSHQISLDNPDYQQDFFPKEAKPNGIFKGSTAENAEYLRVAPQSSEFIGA
Protocol: as §1

[1] = Table 13, A compounds, read-out: IC50 BTK-WT
[2] = Table 15, C compounds, read-out: IC50 BTK-WT

Compound	IC50 (ITK; Table 13, A compounds)	IC50 (BTK-WT; [1])	IC50 (SRC; Table 13, A compounds)	IC50 (EGFR; Table 13, A compounds)	ITK* IC50 relative to Btk IC50 value (ITK)	IC50 (BTK-WT; read-out: BTK-WT IC50)	SRC* IC50 relative to Btk IC50 value (SRC)	EGFR* IC50 relative to Btk IC50 value (EGFR)	IC50 (ITK; Table 15, C compounds)	IC50 (BTK-WT; [2])	IC50 (EGFR; Table 15, C compounds)	IC50 (SRC; Table 15, C compounds)
CN1CCN(c2ccc(Nc3nc(N4CCC[C@@H](n5ccc6cc(C7CC7)ccc6c5=O)C4)cnc3C(N)=O)cc2)CC1 [Example A-99, 5-[(3R)-3-(6-cyclo-propyl-1-oxo-1,2-dihydroisoquinolin-2-yl)piperidin-1-yl]-3-{[4-(4-methylpiperazin-1-yl)phenyl]amino}pyrazine-2-carboxamide]	100 to 1000 nM	≤ 10 nM	100 to 1000 nM	> 10000 nM	–	–	–	–	–	–	–	–
C[C@@H]1[C@H](NC(=O)c2cc3c(n2C)CC(C)(C)C3)CCCN1c1cnc(C(N)=O)c(Nc2cnn(C)c2)n1 [Example A-193, N-((2R,3R)-1-(5-carbamoyl-6-(1-methyl-1H-pyrazol-4-ylamino)pyrazin-2-yl)-2-methylpiperidin-3-yl)-1,5,5-trimethyl-1,4,5,6-tetrahydrocyclo-penta[b]pyrrole-2-carboxamide]	100 to 1000 nM	≤ 10 nM	100 to 1000 nM	100 to 1000 nM	–	–	–	–	–	–	–	–
C[C@@H]1[C@H](NC(=O)c2ccc(C3CC3)cc2)CCCN1c1cnc(C(N)=O)c(Nc2cnn(C(F)F)c2)n1 [Example A-198, 5-[(2R,3R)-3-(4-cyclopropylbenzamido)-2-methylpiperidin-1-yl]-3-{[1-(difluoromethyl)-1H-pyrazol-4-yl]amino}pyrazine-2-carboxamide]	–	–	–	–	133x	< 10 nM	69x	1276x	–	–	–	–
C[C@@H]1[C@H](NC(=O)c2ccc(C3CC3)cc2)CCCN1c1nnc(C(N)=O)c(Nc2cnn(C)c2)n1 [Example A-201, 3-[(2R,3R)-3-(4-cyclopropylbenzamido)-2-methylpiperidin-1-yl]-5-[(1-methyl-1H-pyrazol-4-yl)amino]-1,2,4-triazine-6-carboxamide]	–	–	–	–	234x	< 10 nM	47x	2962x	–	–	–	–
Cn1cc(Nc2nc(N3CCC[C@@H](NC(=O)c4ccc(C5CC5)cc4)C3)nnc2C(N)=O)cn1 [Example A-202, 3-[(3R)-3-(4-cyclopropylbenzamido)piper-idin-1-yl]-5-[(1-methyl-1H-pyrazol-4-yl)amino]-1,2,4-triazine-6-carboxamide]	–	–	–	–	360x	< 10 nM	159x	5208x	–	–	–	–
C[C@@H]1[C@H](NC(=O)c2ccc(C3CC3)cc2)CCCN1c1cnc(C(N)=O)c(Nc2cnn(C3CC3)c2)n1 [Example A-205, 3-[(1-cyclopropyl-1H-pyrazol-4-yl)amino]-5-[(2R,3R)-3-(4-cyclopropylbenzamido)-2-methylpiperidin-1-yl]pyrazine-2-carboxamide]	–	–	–	–	135x	< 10 nM	40x	730x	–	–	–	–
C=CC(=O)N1CCC[C@@H](Nc2nnc(C(N)=O)c(Nc3ccc(C(C)(C)C)cc3)n2)C1 [Example C-40, (R)-3-(1-acryloylpiperidin-3-ylamino)-5-(4-tert-butylphenylamino)-1,2,4-triazine-6-carboxamide]	–	–	–	–	–	–	–	–	≤ 10 nM	≤ 10 nM	≤ 10 nM	–
C=CC(=O)N1CC[C@@H](N(C)c2nnc(C(N)=O)c(Nc3ccc(C(C)C)cc3)n2)C1 [Example C-41, (R)-3-((1-acryloylpyrrolidin-3-yl)(methyl)amino)-5-(4-isopropylphenylamino)-1,2,4-triazine-6-carboxamide]	–	–	–	–	–	–	–	–	≤ 10 nM	≤ 10 nM	≤ 10 nM	10 to 100 nM
C=CC(=O)N1CCC[C@@H](N(C)c2cnc(C(N)=O)c(Nc3ccc(C(C)C)cc3)n2)C1 [Example C-42, (R)-5-((1-acryloylpiperidin-3-yl)(methyl)amino)-3-(4-isopropylphenylamino) pyrazine-2-carboxamide]	–	–	–	–	–	–	–	–	10 to 100 nM	≤ 10 nM	–	100 to 1000 nM
C=CC(=O)N1CCC[C@@H](N(C)c2cnc(C(N)=O)c(Nc3ccc(C4(C)CCN(C5CCCC5)CC4)cc3)n2)C1 [Example C-44, (R)-5-((1-acryloylpiperidin-3-yl)(methyl)amino)-3-(4-(1-cyclopentyl-4-methylpiperidin-4-yl)phenylamino) pyrazine-2-carboxamide]	–	–	–	–	–	–	–	–	≤ 10 nM	≤ 10 nM	≤ 10 nM	≤ 10 nM
C=CC(=O)N1CCC[C@@H](Nc2nnc(C(N)=O)c(Nc3cc(C)ns3)n2)C1 [Example C-56, (R)-3-(1-acryloylpiperidin-3-ylamino)-5-(3-methylisothiazol-5-ylamino)-1,2,4-triazine-6-carboxamide]	–	–	–	–	–	–	–	–	≤ 10 nM	≤ 10 nM	≤ 10 nM	10 to 100 nM
C=CC(=O)N1CCC[C@@H](Nc2nnc(C(N)=O)c(Nc3ccc(C4CCN(C(=O)CC)CC4)cc3)n2)C1 [Example C-57, (R)-3-(1-acryloylpiperidin-3-ylamino)-5-(4-(1-propionylpiperidin-4-yl)phenylamino)-1,2,4-triazine-6-carboxamide]	–	–	–	–	–	–	–	–	≤ 10 nM	≤ 10 nM	≤ 10 nM	10 to 100 nM
C=CC(=O)N1CCC[C@@H](Nc2cnc(C(N)=O)c(Nc3ccc(C4CCN(C5CCCC5)CC4)cc3)n2)C1 [Example C-84, (R)-5-(1-acryloylpiperidin-3-ylamino)-3-(4-(1-cyclopentylpiperidin-4-yl)phenylamino)pyrazine-2-carboxamide]	–	–	–	–	–	–	–	–	≤ 10 nM	≤ 10 nM	≤ 10 nM	10 to 100 nM

Now from value to molecule:

IC50 (ITK; Table 13, A compounds)	IC50 (BTK-WT; [1])	IC50 (SRC; Table 13, A compounds)	IC50 (EGFR; Table 13, A compounds)	ITK* IC50 relative to Btk IC50 value (ITK)	IC50 (BTK-WT; read-out: BTK-WT IC50)	SRC* IC50 relative to Btk IC50 value (SRC)	EGFR* IC50 relative to Btk IC50 value (EGFR)	IC50 (ITK; Table 15, C compounds)	IC50 (BTK-WT; [2])	IC50 (EGFR; Table 15, C compounds)	IC50 (SRC; Table 15, C compounds)	Compound
1000 to 10000 nM	≤ 10 nM	100 to 1000 nM	1000 to 10000 nM	–	–	–	–	–	–	–	–	C[C@@H]1[C@H](NC(=O)N(C)C)CCCN1c1cnc(C(N)=O)c(Nc2ccc(C(=O)N3CCN(C)CC3)cc2)n1 [Example A-98, 5-[(2R,3R)-3-[(dimethylcarbamoyl)amino]-2-methylpiperidin-1-yl]-3-{[4-(4-methylpiperazine-1-carbonyl)phenyl]amino}pyrazine-2-carboxamide]
100 to 1000 nM	≤ 10 nM	10 to 100 nM	100 to 1000 nM	–	–	–	–	–	–	–	–	C[C@@H]1[C@H](NC(=O)N(C)C)CCCN1c1cnc(C(N)=O)c(Nc2ccc(N3CCN(C)CC3)cc2)n1 [Example A-100, 5-[(2R,3R)-3-[(dimethylcarbamoyl)amino]-2-methylpiperidin-1-yl]-3-{[4-(4-methylpiperazin-1-yl)phenyl]amino}pyrazine-2-carboxamide]
> 10000 nM	10 to 100 nM	1000 to 10000 nM	1000 to 10000 nM	–	–	–	–	–	–	–	–	Cc1c(Nc2nc(N3CCC[C@@H](NC(=O)c4ccc(C5CC5)cc4)[C@H]3C)cnc2C(N)=O)cnn1C [Example A-191, 5-((2R,3)R-3-(4-cyclopropylbenzamido)-2-methylpiperidin-1-yl)-3-(1,5-dimethyl-1H-pyrazol-4-ylamino)pyrazine-2-carboxamide]
> 10000 nM	10 to 100 nM	> 10000 nM	1000 to 10000 nM	–	–	–	–	–	–	–	–	Cc1nn(C)cc1Nc1nc(N2CCC[C@@H](NC(=O)c3ccc(C4CC4)cc3)[C@H]2C)cnc1C(N)=O [Example A-192, 5-((2R,3R)-3-(4-cyclopropylbenzamido)-2-methylpiperidin-1-yl)-3-(1,3-dimethyl-1H-pyrazol-4-ylamino)pyrazine-2-carboxamide]
–	–	–	–	99x	< 10 nM	40x	380x	–	–	–	–	C[C@@H]1[C@H](NC(=O)c2ccc(C(C)(C)O)cc2)CCCN1c1cnc(C(N)=O)c(Nc2cnn(C)c2)n1 [Example A-200, 5-((2R,3R)-3-(4-(2-hydroxypropan-2-yl)benzamido)-2-methyl-piperidin-1-yl)-3-(1-methyl-1H-pyrazol-4-yl-amino)pyrazine-2-carboxamide]
–	–	–	–	787x	< 10 nM	98x	3304x	–	–	–	–	C[C@@H]1[C@H](NC(=O)c2ccc(C(C)(C)C)cc2)CCCN1c1cnc(C(N)=O)c(Nc2cnn(C)c2)n1 [Example A-203, 5-((2R,3R)-3-(4-tert-butylbenzamido)-2-methylpiperidin-1-yl)-3-(1-methyl-1H-pyrazol-4-ylamino)pyrazine-2-carboxamide]
–	–	–	–	157x	< 10 nM	33x	896x	–	–	–	–	C[C@@H]1[C@H](NC(=O)c2ccc(C3COC3)cc2)CCCN1c1cnc(C(N)=O)c(Nc2cnn(C)c2)n1 [Example A-206, 3-(1-methyl-1H-pyrazol-4-ylamino)-5-((2R,3R)-2-methyl-3-(4-(oxetan-3-yl)benzamido)piperidin-1-yl)pyrazine-2-carboxamide]
